Key:
[1] = biological target: T1, c-mesenchymal-epithelial transition factor (c-MET) (Homo sapiens, UniProt P08581); experiment: Small kinase panel, c-MET; assay type: biochemical; settings: read-out: % kinase inhibition (relative to DMSO control) c-MET
T1 construct: purchased Reaction Biology Co. (Malvern, PA)
Experimental: (§1) Enzyme inhibitory assays were carried out as described in our previous reports in the literature. […] The HotSpot assay platform includes specific kinase/substrate pairs and required cofactors. The base reaction buffer consisted of 20 mM Hepes (pH 7.5), 10 mM MgCl2, 1 mM EGTA, 0.02% Brij35, 0.02 mg/mL BSA, 0.1 mM Na3VO4, 2 mM DTT, and 1% DMSO. The tested compounds were dissolved in 100% DMSO to a specific concentration, and serial dilution was conducted. The reaction mixture containing the tested compound and 33P-ATP was incubated at room temperature for 2 h, and radioactivity was detected using the filter-binding method.

[2] = biological target: T2, fibroblast growth factor receptor 1 (FGFR1) (Homo sapiens, UniProt P11362); experiment: Small kinase panel, FGFR1; assay type: biochemical; settings: read-out: % kinase inhibition (relative to DMSO control) FGFR1
T2 construct: purchased Reaction Biology Co. (Malvern, PA)
T2 sequence (P11362 22-822): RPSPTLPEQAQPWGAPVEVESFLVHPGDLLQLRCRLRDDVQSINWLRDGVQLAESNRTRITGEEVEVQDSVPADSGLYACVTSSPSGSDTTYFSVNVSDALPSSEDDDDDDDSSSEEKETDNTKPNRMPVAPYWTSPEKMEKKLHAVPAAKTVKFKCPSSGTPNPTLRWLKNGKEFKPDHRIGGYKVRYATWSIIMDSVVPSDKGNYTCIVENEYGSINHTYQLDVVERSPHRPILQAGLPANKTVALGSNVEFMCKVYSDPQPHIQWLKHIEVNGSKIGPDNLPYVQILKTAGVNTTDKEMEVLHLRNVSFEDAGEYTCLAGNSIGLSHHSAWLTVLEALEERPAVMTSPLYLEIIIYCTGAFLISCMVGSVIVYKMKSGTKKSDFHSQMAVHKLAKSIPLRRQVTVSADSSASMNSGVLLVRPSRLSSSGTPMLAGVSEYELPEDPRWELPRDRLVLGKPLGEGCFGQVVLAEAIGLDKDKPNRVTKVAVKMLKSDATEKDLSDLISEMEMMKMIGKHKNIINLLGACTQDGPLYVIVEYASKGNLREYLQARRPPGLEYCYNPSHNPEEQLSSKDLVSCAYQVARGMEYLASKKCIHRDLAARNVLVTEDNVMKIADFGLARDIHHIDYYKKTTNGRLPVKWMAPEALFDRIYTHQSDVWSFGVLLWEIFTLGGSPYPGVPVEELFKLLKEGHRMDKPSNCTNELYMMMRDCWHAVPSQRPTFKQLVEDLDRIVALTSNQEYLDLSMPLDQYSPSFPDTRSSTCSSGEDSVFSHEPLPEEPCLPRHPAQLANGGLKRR
Experimental: as §1

22RV1 cells = experiment: Cell cycle analysis (PI, ADAMII LS), 22RV1; assay type: cell-based, human; settings: 22RV1, compound at its IC50, 24 h
Experimental: (§2) Cell cycle progression is responsible for normal cell growth and proliferation. DNA damage can result in apoptosis, which causes cell death, or DNA repair. At specific checkpoints that serve as control mechanisms to guarantee correct cell division, the state of the cells is evaluated. Checkpoints in the cell cycle include the G1 (restriction), S […], and G2/M[29]. Anticancer medications’ function is to halt cell division at these checkpoints. Treatment with potent cytotoxic (as an anticancer) agents can determine at which phase apoptosis occurs in the cell cycle. […] PC3 and 22RV1 cells were treated with compound 9f at its IC50. The comparison data in Table 6 and Figure 3 indicate that compound 9f (test 2) arrested the cell cycle of 22RV1 and PC3 cells at the G2/M phase by 62.74% and 49.43%, respectively (Figure 3). Also, the cell population in G1 and S phases decreases after treatment (test 2) compared to a negative control (test 1).
(§3) To determine the effect of the tested compound on the cell cycle distribution of PC3 and 22RV1 cell lines. Cell cycles can be analysed with checking the cell cycle change compared to the control group. Control cells without any treatment were used as a reference point for determining the cell cycle arrest phase for the test sample. Cell cycle analysis was performed using the Cell Cycle Analysis Kit (ADAMII LS, NanoEntek, Seoul, South Korea). Briefly, cancer cells were first seeded in six-well plates (0.8 × 10^6 cells per well) and then incubated for 24 h at 37 °C in a 5% CO2-containing atmosphere. […] 25 µL of sample mixture was loaded into ADAMII LS assay slide, then the slide was incubated at room temperature for 1 min in the dark and run on the ADAMII LS fluorescence cell analyser. Cell cycle distribution was calculated using ADAMII LS software (ADAMII LS, NanoEntek, Seoul, South Korea).

PC3 cells = experiment: Cell cycle analysis (PI, ADAMII LS), PC3; assay type: cell-based, human; settings: PC3, compound at its IC50, 24 h
Experimental: as §2, §3

EGFR = EGFR (Homo sapiens, UniProt P00533); experiment: HotSpot kinase assay over EGFR (Reaction Biology)
EGFR, sequence (P00533 25-1210): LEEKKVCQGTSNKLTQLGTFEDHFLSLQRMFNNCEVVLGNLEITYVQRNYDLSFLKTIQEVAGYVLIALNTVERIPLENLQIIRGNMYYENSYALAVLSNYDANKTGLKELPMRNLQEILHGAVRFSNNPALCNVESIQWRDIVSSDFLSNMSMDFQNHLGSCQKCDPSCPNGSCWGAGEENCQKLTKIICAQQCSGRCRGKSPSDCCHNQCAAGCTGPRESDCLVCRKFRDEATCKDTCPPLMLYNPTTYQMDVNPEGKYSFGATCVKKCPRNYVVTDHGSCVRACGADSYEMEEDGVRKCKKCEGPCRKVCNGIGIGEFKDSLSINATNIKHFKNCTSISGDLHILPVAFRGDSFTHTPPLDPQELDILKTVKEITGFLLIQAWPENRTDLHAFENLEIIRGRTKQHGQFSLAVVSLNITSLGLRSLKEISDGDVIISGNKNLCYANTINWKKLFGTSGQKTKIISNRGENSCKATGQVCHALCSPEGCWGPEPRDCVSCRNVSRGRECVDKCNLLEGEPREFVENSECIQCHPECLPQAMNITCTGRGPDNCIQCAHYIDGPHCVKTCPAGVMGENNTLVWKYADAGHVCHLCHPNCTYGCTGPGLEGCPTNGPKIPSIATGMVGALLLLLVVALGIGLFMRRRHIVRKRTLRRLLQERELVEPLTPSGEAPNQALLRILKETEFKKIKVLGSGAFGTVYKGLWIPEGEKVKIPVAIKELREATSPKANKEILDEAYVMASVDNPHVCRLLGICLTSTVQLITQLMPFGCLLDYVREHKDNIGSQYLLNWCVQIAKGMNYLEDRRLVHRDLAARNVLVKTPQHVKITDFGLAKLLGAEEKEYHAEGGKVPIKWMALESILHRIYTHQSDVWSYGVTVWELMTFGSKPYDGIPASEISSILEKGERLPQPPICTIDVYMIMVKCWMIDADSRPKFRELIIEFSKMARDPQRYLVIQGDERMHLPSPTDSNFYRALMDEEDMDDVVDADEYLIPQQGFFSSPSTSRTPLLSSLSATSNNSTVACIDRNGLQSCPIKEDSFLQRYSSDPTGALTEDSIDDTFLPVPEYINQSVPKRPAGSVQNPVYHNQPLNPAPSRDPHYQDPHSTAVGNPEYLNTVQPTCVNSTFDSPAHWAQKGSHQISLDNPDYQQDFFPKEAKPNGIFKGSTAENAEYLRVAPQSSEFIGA

HER2 = HER2 (Homo sapiens, UniProt P04626); experiment: HotSpot kinase assay over HER2 (Reaction Biology)
HER2, sequence (P04626 23-1255): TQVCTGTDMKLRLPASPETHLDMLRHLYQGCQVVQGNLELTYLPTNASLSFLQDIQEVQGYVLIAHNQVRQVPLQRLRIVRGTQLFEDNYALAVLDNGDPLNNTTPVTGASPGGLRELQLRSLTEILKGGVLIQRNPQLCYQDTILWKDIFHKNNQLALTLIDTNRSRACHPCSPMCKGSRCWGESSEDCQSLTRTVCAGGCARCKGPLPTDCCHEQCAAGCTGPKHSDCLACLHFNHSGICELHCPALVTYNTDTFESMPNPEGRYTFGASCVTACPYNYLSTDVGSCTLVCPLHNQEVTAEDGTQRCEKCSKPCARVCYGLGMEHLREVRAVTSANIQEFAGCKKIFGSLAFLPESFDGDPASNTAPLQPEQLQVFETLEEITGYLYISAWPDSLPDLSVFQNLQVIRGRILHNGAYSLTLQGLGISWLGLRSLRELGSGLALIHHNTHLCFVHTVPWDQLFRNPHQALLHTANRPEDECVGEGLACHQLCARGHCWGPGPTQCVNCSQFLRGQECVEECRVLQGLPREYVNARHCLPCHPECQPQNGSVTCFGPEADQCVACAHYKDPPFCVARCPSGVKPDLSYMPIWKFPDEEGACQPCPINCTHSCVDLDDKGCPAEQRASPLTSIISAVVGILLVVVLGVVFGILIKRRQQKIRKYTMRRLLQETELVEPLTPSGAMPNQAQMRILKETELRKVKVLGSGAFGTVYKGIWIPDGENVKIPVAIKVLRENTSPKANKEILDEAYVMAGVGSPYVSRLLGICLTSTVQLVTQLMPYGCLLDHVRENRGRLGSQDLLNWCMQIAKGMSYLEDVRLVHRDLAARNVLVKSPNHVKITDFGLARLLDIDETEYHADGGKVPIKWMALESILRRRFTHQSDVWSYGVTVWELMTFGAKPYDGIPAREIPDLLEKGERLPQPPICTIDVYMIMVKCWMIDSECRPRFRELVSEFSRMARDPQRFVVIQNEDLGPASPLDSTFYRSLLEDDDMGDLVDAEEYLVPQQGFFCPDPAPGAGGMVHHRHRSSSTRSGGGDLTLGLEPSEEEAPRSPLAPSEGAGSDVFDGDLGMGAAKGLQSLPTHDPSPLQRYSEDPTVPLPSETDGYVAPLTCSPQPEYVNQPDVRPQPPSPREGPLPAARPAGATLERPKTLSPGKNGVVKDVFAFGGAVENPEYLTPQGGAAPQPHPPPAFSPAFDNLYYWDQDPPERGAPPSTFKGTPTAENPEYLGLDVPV

T1 sequence (P08581 25-1390): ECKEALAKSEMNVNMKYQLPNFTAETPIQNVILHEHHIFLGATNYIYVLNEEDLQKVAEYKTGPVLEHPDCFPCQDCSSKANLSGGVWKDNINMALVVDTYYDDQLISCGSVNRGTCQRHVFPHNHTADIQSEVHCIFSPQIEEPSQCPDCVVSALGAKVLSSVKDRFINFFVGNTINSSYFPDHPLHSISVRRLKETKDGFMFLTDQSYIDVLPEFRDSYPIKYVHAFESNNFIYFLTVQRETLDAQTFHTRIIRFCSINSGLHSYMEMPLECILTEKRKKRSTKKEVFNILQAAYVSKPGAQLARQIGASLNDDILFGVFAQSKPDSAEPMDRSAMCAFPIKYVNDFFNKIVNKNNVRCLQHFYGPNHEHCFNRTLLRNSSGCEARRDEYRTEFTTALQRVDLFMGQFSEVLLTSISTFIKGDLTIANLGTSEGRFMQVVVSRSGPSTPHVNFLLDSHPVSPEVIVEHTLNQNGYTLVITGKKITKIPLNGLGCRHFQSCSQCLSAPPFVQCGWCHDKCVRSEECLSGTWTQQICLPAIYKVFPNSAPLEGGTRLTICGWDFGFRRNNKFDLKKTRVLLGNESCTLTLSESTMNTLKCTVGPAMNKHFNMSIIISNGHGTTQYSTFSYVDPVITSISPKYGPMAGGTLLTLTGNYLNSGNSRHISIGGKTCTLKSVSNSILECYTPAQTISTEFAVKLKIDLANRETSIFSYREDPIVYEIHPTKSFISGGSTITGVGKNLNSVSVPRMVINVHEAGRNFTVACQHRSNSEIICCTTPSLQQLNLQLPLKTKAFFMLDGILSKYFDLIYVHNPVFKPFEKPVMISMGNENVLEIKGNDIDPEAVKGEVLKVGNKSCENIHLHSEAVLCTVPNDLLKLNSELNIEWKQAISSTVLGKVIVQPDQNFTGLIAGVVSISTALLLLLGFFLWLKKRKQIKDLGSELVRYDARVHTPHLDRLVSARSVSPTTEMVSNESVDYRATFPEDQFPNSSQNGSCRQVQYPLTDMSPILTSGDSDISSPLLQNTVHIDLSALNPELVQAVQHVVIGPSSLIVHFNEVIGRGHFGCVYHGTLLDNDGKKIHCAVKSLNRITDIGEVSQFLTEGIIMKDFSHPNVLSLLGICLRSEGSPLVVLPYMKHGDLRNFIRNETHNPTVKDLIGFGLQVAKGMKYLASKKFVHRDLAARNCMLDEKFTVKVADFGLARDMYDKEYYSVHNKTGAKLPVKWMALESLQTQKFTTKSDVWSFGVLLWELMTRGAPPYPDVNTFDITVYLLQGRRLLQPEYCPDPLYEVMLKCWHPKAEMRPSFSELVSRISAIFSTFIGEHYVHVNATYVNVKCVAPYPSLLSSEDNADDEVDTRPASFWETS

COc1cc2ncnc(Nc3ccc(Oc4cccc(C(F)(F)F)c4)c(Cl)c3)c2cc1OCCCCn1ccnc1[N+](=O)[O-] [Compound 9f, N-(3-Chloro-4-(3-(trifluoromethyl)phenoxy)phenyl)-7-methoxy-6-(4-(2-nitro-1H-imidazol-1-yl)butoxy)quinazolin-4-amine]
inhibition at 10 µM [1]: 24.6%
inhibition at 10 µM [2]: 5.54%
G0/G1 phase Percent (22RV1 cells): 6.08%
G2/M phase Percent (22RV1 cells): 62.74%
S phase Percent (22RV1 cells): 9.13%
G0/G1 phase Percent (PC3 cells): 7.22%
G2/M phase Percent (PC3 cells): 49.43%
S phase Percent (PC3 cells): 28.14%
IC50 (EGFR): 2.3 nM
fold of potency over EGFR compared to TAK-285 (EGFR; ratio of IC50 values): 10 fold
fold of potency over EGFR compared to staurosporine (EGFR; ratio of IC50 values): 38 fold
inhibition at 10 µM (EGFR; read-out: % kinase inhibition EGFR): 99.3%
IC50 (HER2): 234 nM
inhibition at 10 µM (HER2; read-out: % kinase inhibition HER2): 98%
